Laboratory results from patent US20260035359A1, “HERBICIDAL IMIDAZOLE COMPOUNDS” (SYNGENTA CROP PROTECTION AG, priority 2022, published 2026).

Experiments:
Assay type in all cases: in vivo
[1] = system: Amaranthus pa/meri (AMAPA); experiment: Pre-emergence herbicidal glasshouse test; settings: 250 g/ha, sprayed after one day cultivation, evaluated after 13 days
Protocol: (§1) Seeds of a variety of test species are sown in standard soil in pots Amaranthus pa/meri (AMAPA), Amaranthus retoflexus (AMARE), Echinochloa crus-gali (ECHCG), Ipomoea hederacea (IPOHE), Setaria faberi (SETFA). After cultivation for one day (pre-emergence) or after 8 days cultivation (post-emergence) under controlled conditions in a glasshouse (at 24/16° C., day/night; 14 hours light; 65% humidity), the plants are sprayed with an aqueous spray solution derived from the formulation of the technical active ingredient in acetone/water (50:50) solution containing 0.5% Tween 20 (polyoxyethelyene sorbitan monolaurate, CAS RN 9005-64-5). Compounds are applied at 250 g/ha unless otherwise stated. The test plants are then grown in a glasshouse under controlled conditions in a glasshouse (at 24/16° C., day/night; 14 hours light; 65% humidity) and watered twice daily. After 13 days for pre and post-emergence, the test is evaluated for the percentage damage caused to the plant. The biological activities are shown in the following table on a five-point scale (5=81-100%; 4=61-80%; 3=41-60%; 2=21-40%; 1=0-20%).

[2] = system: Echinochloa crus-gali (ECHCG); experiment: Pre-emergence herbicidal glasshouse test; settings: 250 g/ha, sprayed after one day cultivation, evaluated after 13 days
Protocol: as §1

[3] = system: Ipomoea hederacea (IPOHE); experiment: Pre-emergence herbicidal glasshouse test; settings: 250 g/ha, sprayed after one day cultivation, evaluated after 13 days
Protocol: as §1

Setaria faberi (SETFA) [4] = experiment: Pre-emergence herbicidal glasshouse test; settings: 250 g/ha, sprayed after one day cultivation, evaluated after 13 days
Protocol: as §1

[5] = system: Amaranthus retoflexus (AMARE); experiment: Pre-emergence herbicidal glasshouse test; settings: 250 g/ha, sprayed after one day cultivation, evaluated after 13 days
Protocol: as §1

[6] = system: Amaranthus pa/meri (AMAPA); experiment: Post-emergence herbicidal glasshouse test; settings: 250 g/ha, sprayed after 8 days cultivation, evaluated after 13 days
Protocol: as §1

[7] = system: Echinochloa crus-gali (ECHCG); experiment: Post-emergence herbicidal glasshouse test; settings: 250 g/ha, sprayed after 8 days cultivation, evaluated after 13 days
Protocol: as §1

[8] = system: Ipomoea hederacea (IPOHE); experiment: Post-emergence herbicidal glasshouse test; settings: 250 g/ha, sprayed after 8 days cultivation, evaluated after 13 days
Protocol: as §1

Setaria faberi (SETFA) [9] = experiment: Post-emergence herbicidal glasshouse test; settings: 250 g/ha, sprayed after 8 days cultivation, evaluated after 13 days
Protocol: as §1

[10] = system: Amaranthus retoflexus (AMARE); experiment: Post-emergence herbicidal glasshouse test; settings: 250 g/ha, sprayed after 8 days cultivation, evaluated after 13 days
Protocol: as §1

Compound	percentage damage caused to the plant, AMAPA [1]	percentage damage caused to the plant, ECHCG [2]	percentage damage caused to the plant, IPOHE [3]	percentage damage caused to the plant, SETFA (Setaria faberi (SETFA) [4])	percentage damage caused to the plant, AMARE [5]	percentage damage caused to the plant, AMAPA [6]	percentage damage caused to the plant, ECHCG [7]	percentage damage caused to the plant, IPOHE [8]	percentage damage caused to the plant, SETFA (Setaria faberi (SETFA) [9])	percentage damage caused to the plant, AMARE [10]
N#Cc1cn(Cc2ncc(Cl)cn2)c(CC2CCOC2)n1 (centres unmarked) [Compound 1.073, 1-[(5-chloropyrimidin-2-yl)methyl]-2-(tetrahydrofuran-3-ylmethyl)imidazole-4-carbonitrile]	2 (2=21-40%)	1 (1=0-20%)	2 (2=21-40%)	1 (1=0-20%)	2 (2=21-40%)	2 (2=21-40%)	1 (1=0-20%)	3 (3=41-60%)	1 (1=0-20%)	2 (2=21-40%)
FC(F)(F)c1cn(Cc2ncc(Cl)cn2)c(CCl)n1 [Compound 1.071, 5-chloro-2-[[2-(chloromethyl)-4-(trifluoromethyl)imidazol-1-yl]methyl]pyrimidine]	2 (2=21-40%)	1 (1=0-20%)	1 (1=0-20%)	1 (1=0-20%)	3 (3=41-60%)	1 (1=0-20%)	1 (1=0-20%)	1 (1=0-20%)	1 (1=0-20%)	1 (1=0-20%)
CS(=O)(=O)CCc1nc(C(F)(F)F)cn1Cc1ncc(Cl)cn1 [Compound 1.048]	4 (4=61-80%)	1 (1=0-20%)	5 (5=81-100%)	1 (1=0-20%)	5 (5=81-100%)	4 (4=61-80%)	1 (1=0-20%)	4 (4=61-80%)	1 (1=0-20%)	4 (4=61-80%)
FC(F)(F)CCCc1nc(Cl)cn1Cc1ncc(Cl)cn1 [Compound 1.001, 5-chloro-2-[[4-chloro-2-(4,4,4-trifluorobutyl)imidazol-1-yl]methyl]pyrimidine]	2 (2=21-40%)	1 (1=0-20%)	1 (1=0-20%)	1 (1=0-20%)	1 (1=0-20%)	2 (2=21-40%)	1 (1=0-20%)	2 (2=21-40%)	1 (1=0-20%)	2 (2=21-40%)
FC(F)(F)CCCc1nc(C(F)(F)F)cn1Cc1ncc(Cl)cn1 [Compound 1.025]	5 (5=81-100%)	5 (5=81-100%)	5 (5=81-100%)	5 (5=81-100%)	5 (5=81-100%)	5 (5=81-100%)	5 (5=81-100%)	4 (4=61-80%)	5 (5=81-100%)	5 (5=81-100%)
OCCCc1nc(C(F)(F)F)cn1Cc1ncc(Cl)cn1 [Compound 1.008, 3-[1-[(5-chloropyrimidin-2-yl)methyl]-4-(trifluoromethyl)imidazol-2-yl]propan-1-ol]	1 (1=0-20%)	2 (2=21-40%)	1 (1=0-20%)	1 (1=0-20%)	1 (1=0-20%)	1 (1=0-20%)	1 (1=0-20%)	1 (1=0-20%)	1 (1=0-20%)	1 (1=0-20%)
CC(C)Cc1nc(C(F)(F)F)cn1Cc1ncc(Cl)cn1 [Compound 1.021]	5 (5=81-100%)	1 (1=0-20%)	4 (4=61-80%)	1 (1=0-20%)	3 (3=41-60%)	3 (3=41-60%)	1 (1=0-20%)	3 (3=41-60%)	1 (1=0-20%)	3 (3=41-60%)
CC(C)(O)CCc1nc(C(F)(F)F)cn1Cc1ncc(Cl)cn1 [Compound 1.086]	1 (1=0-20%)	1 (1=0-20%)	3 (3=41-60%)	1 (1=0-20%)	1 (1=0-20%)	2 (2=21-40%)	1 (1=0-20%)	3 (3=41-60%)	1 (1=0-20%)	2 (2=21-40%)
CCCCc1nc(C(F)(F)F)cn1Cc1ncc(Cl)cn1 [Compound 1.026]	5 (5=81-100%)	3 (3=41-60%)	3 (3=41-60%)	5 (5=81-100%)	5 (5=81-100%)	5 (5=81-100%)	2 (2=21-40%)	4 (4=61-80%)	2 (2=21-40%)	5 (5=81-100%)
CCOCCc1nc(C(F)(F)F)cn1Cc1ncc(Cl)cn1 [Compound 1.038]	5 (5=81-100%)	5 (5=81-100%)	5 (5=81-100%)	5 (5=81-100%)	5 (5=81-100%)	3 (3=41-60%)	3 (3=41-60%)	4 (4=61-80%)	3 (3=41-60%)	4 (4=61-80%)
FC(F)c1ccn(CCc2nc(C(F)(F)F)cn2Cc2ncc(Cl)cn2)n1 [Compound 1.032]	5 (5=81-100%)	5 (5=81-100%)	5 (5=81-100%)	5 (5=81-100%)	5 (5=81-100%)	4 (4=61-80%)	3 (3=41-60%)	4 (4=61-80%)	3 (3=41-60%)	5 (5=81-100%)
